Source: patent US11617740B2, “Chemical inhibitors of Mycobacterium tuberculosis DosRST signaling and persistence” (priority 2017, dated 2023)
Values joined by “and” are separate entries in the source; they are usually repeats but may differ in a detail not shown here. Identical values can stand only once. “Also recorded” adds a separate entry of the source.

What was measured:
WT DosS heme [1] = target: T1, WT DosS heme (Mycobacterium tuberculosis, UniProt P9WGK3); experiment: UV-visible spectroscopy of DosS heme; format: biochemical; details: for position of DosS Soret peak after treatment: DTN-reduced DosS (430 nm), 100 μM
DosR regulon = format: cell-based; details: ΔdosR mutant, 40 μM, >2-fold; q<0.05
DosS(G117L) = DosS(G117L) (Mycobacterium tuberculosis, UniProt P9WGK3, G117L); format: biochemical
DosS(E87L) = DosS(E87L) (Mycobacterium tuberculosis, UniProt P9WGK3, E87L); format: biochemical
WT DosS heme [2] = target: T1, WT DosS heme; details: identical conditions, gradual shift to oxidized state; cited from earlier work

Compound	position of DosS Soret peak after treatment (WT DosS heme [1])	genes downregulated in CDC1551(ΔdosR) background (DosR regulon) [genes]	also measured
[C-]#[O+] [CO, carbon monoxide, reference compound]	422 nm	–	–
[C-]#[O+].[C-]#[O+].[C-]#[O+].[C-]#[O+].[C-]#[O+].[C-]#[O+].[Cl][Ru][Cl].[Cl][Ru][Cl] [CORM-2, tricarbonylchlororuthenium(II) dimer, reference compound]	422 nm	–	–
CN(C)CCCN1C(=O)c2cccc3c(Br)ccc(c23)C1=O [HC104A]	–	171	effect on DosS UV-visible spectrum / heme redox (WT DosS heme [1]; DTN-reduced DosS, 400 μM HC104A): no change; also recorded: inhibitory activity was not observed; also recorded: no impact on the position of the Soret peak
O=C(Nc1ccno1)Nc1ccc(Cl)cc1Cl [HC106A]	422 nm and ~420 nm	51	change of DosS(G117L) UV-visible spectrum (DosS(G117L)): no change to the overall spectrum; also recorded: did not change; also recorded: promoted HC106A resistance; change of DosS E87L UV-visible spectrum (DosS(E87L)): no change on overall spectrum; position of DosS(E87L) Soret peak after treatment (DosS(E87L)): 422 nm
C[C@@H]1CC[C@H]2[C@@H](C)C(=O)O[C@@H]3O[C@@]4(C)CC[C@@H]1[C@]32OO4 [artemisinin, reference compound]	–	–	position of DosS Soret peak after treatment (earlier work) (WT DosS heme [2]): 403 nm
